From ChEMBL document CHEMBL1201862, “PubChem BioAssay data set” (2004)
Calls of active or inactive are those of the source. Rule as the data show it: actives have a measured IC50 and inactives only a lower limit.

Molecular target: Envelope glycoprotein gp160 (Human immunodeficiency virus 1, UniProt Q6QLK5)
Experiment: cell-free HIV fusion peptide-binding blockers – biochemical, uHTS, fluorescence dequenching, […] (AID 1986)

Chain of Envelope glycoprotein gp160 (Q6QLK5 whole entry, the tested form may be a part): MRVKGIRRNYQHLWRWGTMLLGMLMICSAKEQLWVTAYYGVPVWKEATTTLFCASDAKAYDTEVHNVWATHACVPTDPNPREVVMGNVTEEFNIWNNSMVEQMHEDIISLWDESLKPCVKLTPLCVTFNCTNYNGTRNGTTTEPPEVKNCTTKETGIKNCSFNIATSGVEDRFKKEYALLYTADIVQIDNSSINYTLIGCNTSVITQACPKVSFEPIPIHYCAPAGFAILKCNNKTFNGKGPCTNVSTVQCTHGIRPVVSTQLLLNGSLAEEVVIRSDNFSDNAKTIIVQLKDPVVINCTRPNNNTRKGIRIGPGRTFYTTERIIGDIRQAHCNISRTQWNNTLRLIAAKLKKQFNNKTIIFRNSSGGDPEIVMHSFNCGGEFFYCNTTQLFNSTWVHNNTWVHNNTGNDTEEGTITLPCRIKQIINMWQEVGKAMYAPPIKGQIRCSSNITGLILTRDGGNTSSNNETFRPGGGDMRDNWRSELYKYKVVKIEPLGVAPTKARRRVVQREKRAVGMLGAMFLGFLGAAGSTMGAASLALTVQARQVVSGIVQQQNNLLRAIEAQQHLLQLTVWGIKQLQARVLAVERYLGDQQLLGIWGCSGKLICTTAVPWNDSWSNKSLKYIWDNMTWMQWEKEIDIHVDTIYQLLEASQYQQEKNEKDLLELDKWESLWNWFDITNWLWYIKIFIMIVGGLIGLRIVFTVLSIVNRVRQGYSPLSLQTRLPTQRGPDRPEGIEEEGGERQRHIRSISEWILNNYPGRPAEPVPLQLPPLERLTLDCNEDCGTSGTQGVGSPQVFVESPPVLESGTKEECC

## O=S(=O)(Nc1nc(-c2sccc2Cl)cs1)c1cc(Cl)ccc1Cl
  IC50: 8.21 µM (active)
